Experimental data as given in the NIST ThermoML archive (doi:10.1021/je8004062).
± gives the expanded uncertainty stated by the source.

Assay: mn = molality of the nth substance listed, in mol/kg
Settings: 101 kPa, Liquid

[Cl-].[Cl-].[Cl-].[La+3] [lanthanum chloride] + O
Settings | mass density, 293.15 K [kg/m3] | mass density, 298.15 K [kg/m3] | mass density, 303.15 K [kg/m3] | viscosity, 293.15 K [mPa·s] | viscosity, 298.15 K [mPa·s] | viscosity, 303.15 K [mPa·s]
m1 = 0.0996 | 1020.8 ± 0.1 | 1019.4 ± 0.1 | 1018 ± 0.1 | 1.068 ± 0.013 | 0.9503 ± 0.012 | 0.8517 ± 0.011
m1 = 0.1997 | 1043.7 ± 0.1 | 1042.1 ± 0.1 | 1040.4 ± 0.1 | 1.109 ± 0.013 | 0.9881 ± 0.012 | 0.8863 ± 0.011
m1 = 0.2997 | 1065.6 ± 0.2 | 1063.8 ± 0.2 | 1062 ± 0.2 | 1.176 ± 0.014 | 1.049 ± 0.013 | 0.9414 ± 0.012
m1 = 0.3994 | 1086.9 ± 0.2 | 1085 ± 0.2 | 1083.2 ± 0.2 | 1.255 ± 0.015 | 1.12 ± 0.014 | 1.006 ± 0.012
m1 = 0.4984 | 1107.7 ± 0.2 | 1105.8 ± 0.2 | 1103.9 ± 0.2 | 1.34 ± 0.016 | 1.196 ± 0.015 | 1.075 ± 0.013
m1 = 0.6 | 1128.9 ± 0.2 | 1126.9 ± 0.2 | 1125 ± 0.2 | 1.432 ± 0.017 | 1.279 ± 0.015 | 1.149 ± 0.014
m1 = 0.6981 | 1149.1 ± 0.2 | 1147.2 ± 0.2 | 1145.3 ± 0.2 | 1.524 ± 0.018 | 1.361 ± 0.016 | 1.224 ± 0.015
m1 = 0.7983 | 1169.6 ± 0.2 | 1167.7 ± 0.2 | 1165.8 ± 0.2 | 1.621 ± 0.019 | 1.447 ± 0.017 | 1.301 ± 0.016
m1 = 0.9256 | 1195.5 ± 0.2 | 1193.7 ± 0.2 | 1191.8 ± 0.2 | 1.745 ± 0.02 | 1.558 ± 0.018 | 1.402 ± 0.017
m1 = 1.201 | 1251.1 ± 0.3 | 1249.5 ± 0.3 | 1247.8 ± 0.3 | 2.02 ± 0.023 | 1.804 ± 0.021 | 1.624 ± 0.019

[Cl-].[Na+] [sodium chloride] + O
Settings | mass density, 293.15 K [kg/m3] | mass density, 298.15 K [kg/m3] | mass density, 303.15 K [kg/m3] | viscosity, 293.15 K [mPa·s] | viscosity, 298.15 K [mPa·s] | viscosity, 303.15 K [mPa·s]
m1 = 0.2076 | 1006.3 ± 0.1 | 1005.7 ± 0.1 | 1004 ± 0.1 | 1.012 ± 0.013 | 0.9082 ± 0.011 | 0.8115 ± 0.01
m1 = 0.3959 | – | 1013.2 ± 0.1 | 1011.7 ± 0.1 | 1.031 ± 0.013 | 0.9237 ± 0.011 | 0.8306 ± 0.01
m1 = 0.5997 | 1022 ± 0.1 | 1021.2 ± 0.1 | – | 1.054 ± 0.013 | 0.9408 ± 0.012 | 0.8489 ± 0.011
m1 = 0.7817 | 1029 ± 0.1 | 1028.1 ± 0.1 | 1026.4 ± 0.1 | 1.073 ± 0.013 | 0.9565 ± 0.012 | 0.8638 ± 0.011
m1 = 1.01 | 1037.6 ± 0.1 | – | 1034.8 ± 0.1 | 1.098 ± 0.013 | 0.9769 ± 0.012 | 0.8825 ± 0.011
m1 = 1.199 | 1044.5 ± 0.1 | 1043.4 ± 0.1 | 1041.4 ± 0.1 | 1.117 ± 0.014 | 0.9944 ± 0.012 | 0.898 ± 0.011
m1 = 1.502 | 1055.4 ± 0.2 | 1054.3 ± 0.2 | 1052.3 ± 0.1 | 1.151 ± 0.014 | 1.024 ± 0.013 | 0.9236 ± 0.011
m1 = 1.794 | 1065.7 ± 0.2 | 1064.5 ± 0.2 | 1062.5 ± 0.2 | 1.184 ± 0.014 | 1.054 ± 0.013 | 0.9496 ± 0.012
m1 = 2.004 | 1073.1 ± 0.2 | 1071.8 ± 0.2 | 1069.7 ± 0.2 | 1.208 ± 0.015 | 1.077 ± 0.013 | 0.9695 ± 0.012
m1 = 2.409 | 1086.9 ± 0.2 | 1085.5 ± 0.2 | 1083.4 ± 0.2 | 1.256 ± 0.015 | 1.124 ± 0.014 | 1.011 ± 0.013
m1 = 3 | 1106.5 ± 0.2 | 1105 ± 0.2 | 1102.7 ± 0.2 | 1.332 ± 0.016 | 1.2 ± 0.015 | 1.08 ± 0.013
m1 = 3.595 | 1125.5 ± 0.2 | 1123.8 ± 0.2 | 1121.4 ± 0.2 | 1.412 ± 0.017 | 1.288 ± 0.015 | 1.162 ± 0.014
m1 = 4.186 | 1143.5 ± 0.2 | 1141.7 ± 0.2 | 1139.2 ± 0.2 | 1.496 ± 0.018 | 1.385 ± 0.017 | 1.256 ± 0.015
m1 = 4.812 | 1162.1 ± 0.2 | 1160 ± 0.2 | 1157.5 ± 0.2 | 1.592 ± 0.019 | 1.502 ± 0.018 | 1.373 ± 0.016
